Laboratory results published in patent US7273866B2, “2-aryl thiazole derivatives as KCNQ modulators” (Bristol-Myers Squibb Company, priority 2002, dated 2007).

Test system: KCNQ channels
Experiment: Thallium flux assay for KCNQ channel openers
Assay type: cell-based
Details: HEK-293 cells stably transfected with a KCNQ family member; for Min. conc. response: minimal active concentration: lowest concentration giving signal amplitude >= four standard deviations of negative controls; for EC50: thallium flux, 10 point concentration series
Method: Thallium Flux Assay for KCNQ channel Openers. The thallium assay is a modification of that published by Weaver and is referenced in its entirety (Weaver, C. D. WO 02/31508, 2002).
Approximately 20,000 cells/well of an HEK-293 cell line stably transfected with one of the members of the KCNQ family were plated into clear-bottom, black-walled, poly-D-lysine coated, 384 well assay plates in 20 μl/well of low chloride plating medium. Low chloride plating medium was composed of the following: sodium gluconate, 109 mM; potassium gluconate, 5.4 mM; hemi-calcium gluconate, 3.6 mM; magnesium sulfate, 0.8 mM; sodium bicarbonate, 26.2 mM; sodium phosphate monobasic, 1.2 mM; glutamine, 2 mM; glucose, 5 mM; 4-(2-hydroxyethyl)-1-piperazineethanesulfonic acid (HEPES) (pH 7.3) 10 mM, MEM vitamin solution (10× concentration of vitamins, Gibco/LifeTechnologies 11120-052) and MEM amino acid solution (1× concentration of amino acids, Gibco/LifeTechnologies 11130-051).
Following overnight incubation in a 5% CO2 incubator at 37° C., the cells in the plates were loaded with 20 μl/well of a dye loading solution containing the commercially available thallium-sensitive fluorescent dye BTC-AM, the acetomethoxy ester of BTC (see U.S. Pat. No. 5,501,980) (2 μM) and pluronic acid F-127 (Molecular Probes P 6867) (0.02% w/v) in chloride free assay buffer. Chloride free assay buffer was composed of the following: sodium gluconate, 140 mM; potassium gluconate, 2.5 mM; hemi-calcium gluconate, 6 mM; hemi-magnesium gluconate, 2 mM; glucose, 5 mM; HEPES (pH 7.3), 10 mM.
Following incubation in the dye loading solution for from 45-90 min at room temperature, the dye loading solution was removed by aspiration and replaced with 40 μl/well of chloride free assay buffer.
Prior to addition to cell plates, test compound and standard compounds were dissolved in DMSO to 3 mM concentration. Compounds were then diluted from the 3 mM stock to 100-fold over the final assay concentration in DMSO. Finally, compounds in DMSO were diluted from 100-fold over the final assay concentration to 5-fold over the final assay concentration in chloride free assay buffer.
Ten μl/well of compounds at 5-fold over the final assay concentration were then added to the cell plates. This represents a 1:5 dilution, yielding the final test concentration. The wells used for test compounds were A1-P20. Wells A21-P22 contained a standard opener and a maximally efficacious concentration (positive control). Wells A23-P24 contained chloride free assay buffer containing 1% DMSO (negative control).
Following addition of test compounds, the plates were loaded onto the Molecular Devices FLIPR. The 488 nm line of the argon laser was used to excite the BTC and the emission filter was a 540(+/−30) nm. Images were collected at 1 Hz. Ten seconds of baseline were collected and then the FLIPR was used to add 13 μl/well of a stimulus buffer composed of 7.5 mM Tl2SO4 in chloride free assay buffer. Images were collected for an additional 60 seconds.
For data analysis, the amplitude of the average of the negative controls was subtracted from all wells. The amplitudes of the test compounds were then compared to the value of four standard deviations of the negative control wells. The lowest concentration of a test compound sufficient to generate a signal amplitude greater than or equal to four standard deviations from the amplitude of the negative controls was defined as the minimal active concentration.
For generating EC50 values, compounds were serially diluted in 1:3 volume increments to produce a 10 point concentration series. EC50 values were calculated by fitting the resulting amplitudes to a single-site logistic equation. EC50 was defined as the concentration of test compound required to yield 50% of the maximal response. Maximal response (Maximal opening) was the largest signal amplitude divided by the negative control amplitude generated by any concentration of a test compound. […]

SMILES	EC50	Min. conc. response
COc1ccc(F)cc1-c1nc(C(F)(F)F)c(C(=O)NC(C)c2cccc(OC(F)(F)F)c2)s1 (stereo not drawn) [Example 41, 2-(5-fluoro-2-methoxyphenyl)-4-(trifluoromethyl)-N-[1-[3-(trifluoromethoxy)phenyl]ethyl]-5-thiazolecarboxamide]	0.05 to 1 µM	10 µM
COc1cccc(CNC(=O)c2sc(-c3cc(F)ccc3OC)nc2C(F)(F)F)c1 [Example 45, 2-(5-fluoro-2-methoxyphenyl)-4-(trifluoromethyl)-N-[(3-methoxyphenyl)methyl]-5-thiazolecarboxamide]	1 to 20 µM	3 µM
COc1ccc(F)cc1-c1nc(C(F)(F)F)c(C(=O)NCc2cccc(OC(F)(F)F)c2)s1 [Example 46, 2-(5-fluoro-2-methoxyphenyl)-4-(trifluoromethyl)-N-[(3-trifluoromethoxyphenyl)methyl]-5-thiazolecarboxamide]	1 to 20 µM	10 µM
COc1cccc([C@H](C)NC(=O)c2sc(-c3cc(F)ccc3OC)nc2C(F)(F)F)c1 [Example 48, (S)-2-(5-fluoro-2-methoxyphenyl)-4-(trifluoromethyl)-N-[1-[3-(methoxy)phenyl]ethyl]-5-thiazolecarboxamide]	0.05 to 1 µM	3 µM
CC(NC(=O)c1sc(-c2ccccc2Cl)nc1C(F)(F)F)c1cccc(OC(F)(F)F)c1 (stereo not drawn) [Example 49, 2-(2-chlorophenyl)-4-(trifluoromethyl)-N-[1-[3-(trifluoromethoxy)phenyl]ethyl]-5-thiazolecarboxamide]	0.05 to 1 µM	0.3 µM
CC(NC(=O)c1sc(-c2ccccc2Cl)nc1C(F)(F)F)c1cccc(N(C)C)c1 (stereo not drawn) [Example 50, 2-(2-chlorophenyl)-4-(trifluoromethyl)-N-[1-[3-(dimethylamino)phenyl]ethyl]-5-thiazolecarboxamide]	0.05 to 1 µM	0.3 µM
C[C@H](NC(=O)c1sc(-c2ccccc2Cl)nc1C(F)(F)F)c1cccc(N2CCOCC2)c1 [Example 52, 2-(2-chlorophenyl)-4-(trifluoromethyl)-N-[1-[3-(4-morpholinyl)phenyl]ethyl]-5-thiazolecarboxamide]	0.05 to 1 µM	3 µM
CCN(CC)CCOc1ccccc1-c1nc(C(F)(F)F)c(C(=O)NCc2cccc(F)c2)s1 [Example 54]	1 to 20 µM	0.3 µM
COc1cccc(C(C)NC(=O)c2sc(-c3ccccc3N3CCOCC3)nc2C(F)(F)F)c1 (stereo not drawn) [Example 55, 2-[2-(4-morpholinyl)phenyl]-4-(trifluoromethyl)-N-[1-[3-(methoxy)phenyl]ethyl]-5-thiazolecarboxamide]	1 to 20 µM	0.3 µM
CC(NC(=O)c1sc(-c2ccccc2N2CCOCC2)nc1C(F)(F)F)c1cccc(OC(F)(F)F)c1 (stereo not drawn) [Example 57, 2-[2-(4-morpholinyl)phenyl]-4-(trifluoromethyl)-N-[1-[3-(trifluoromethoxy)phenyl]ethyl]-5-thiazolecarboxamide]	0.05 to 1 µM	0.3 µM
CC(NC(=O)c1sc(-c2ccc(N3CCOCC3)cc2)nc1C(F)(F)F)c1cccc(OC(F)(F)F)c1 (stereo not drawn) [Example 58, 2-[4-(4-morpholinyl)phenyl]-4-(trifluoromethyl)-N-[1-[3-(trifluoromethoxy)phenyl]ethyl]-5-thiazolecarboxamide]	0.05 to 1 µM	30 µM
CCN(CC)Cc1cccnc1-c1nc(C(F)(F)F)c(C(=O)NC(C)c2cccc(OC(F)(F)F)c2)s1 (stereo not drawn) [Example 61, 2-[3-(diethylaminomethyl)pyridin-2-yl]-4-(trifluoromethyl)-N-[1-[3-(trifluoromethoxy)phenyl]ethyl]-5-thiazolecarboxamide]	0.05 to 1 µM	30 µM

The next lines start with results.

EC50	SMILES	Min. conc. response
1 to 20 µM	COc1ccccc1-c1nc(C(F)(F)F)c(C(=O)NC(C)c2cccc(NC(=N)N)c2)s1 (stereo not drawn) [Example 40, 2-(2-methoxyphenyl)-4-(trifluoromethyl)-N-[1-[3-(guanidinyl)phenyl]ethyl]-5-thiazolecarboxamide]	30 µM
0.05 to 1 µM	COc1ccc(F)cc1-c1nc(C(F)(F)F)c(C(=O)NC(C)c2cccc(N(C)C)c2)s1 (stereo not drawn) [Example 42, 2-(5-fluoro-2-methoxyphenyl)-4-(trifluoromethyl)-N-[1-[3-(dimethylamino)phenyl]ethyl]-5-thiazolecarboxamide]	10 µM
0.05 to 1 µM	COc1ccc(F)cc1-c1nc(C(F)(F)F)c(C(=O)NC(C)c2cccc(C(F)(F)F)c2)s1 (stereo not drawn) [Example 43, 2-(5-fluoro-2-methoxyphenyl)-4-(trifluoromethyl)-N-[1-[3-(trifluoromethyl)phenyl]ethyl]-5-thiazolecarboxamide]	3 µM
0.05 to 1 µM	COc1ccc(F)cc1-c1nc(C(F)(F)F)c(C(=O)NCc2cccc(F)c2)s1 [Example 44, 2-(5-fluoro-2-methoxyphenyl)-4-(trifluoromethyl)-N-[(3-fluorophenyl)methyl]-5-thiazolecarboxamide]	3 µM
1 to 20 µM	COc1ccc(F)cc1-c1nc(C(F)(F)F)c(C(=O)N[C@@H](C)c2cccc(N3CCOCC3)c2)s1 [Example 47, (S)-2-(5-fluoro-2-methoxyphenyl)-4-(trifluoromethyl)-N-[1-[3-(4-morpholinyl)phenyl]ethyl]-5-thiazolecarboxamide]	3 µM
0.05 to 1 µM	CC(NC(=O)c1sc(-c2ccccc2Cl)nc1C(F)(F)F)c1cccc(C(F)(F)F)c1 (stereo not drawn) [Example 51, 2-(2-chlorophenyl)-4-(trifluoromethyl)-N-[1-[3-(trifluoromethyl)phenyl]ethyl]-5-thiazolecarboxamide]	0.3 µM
1 to 20 µM	CC(NC(=O)c1sc(-c2ccccc2Cl)nc1C(F)(F)F)c1cccc(CN2CCOCC2)c1 (stereo not drawn) [Example 53, 2-(2-chlorophenyl)-4-(trifluoromethyl)-N-[1-[3-(4-morpholinylmethyl)phenyl]ethyl]-5-thiazolecarboxamide]	3 µM
0.05 to 1 µM	CC(NC(=O)c1sc(-c2ccccc2N2CCOCC2)nc1C(F)(F)F)c1cccc(C(F)(F)F)c1 (stereo not drawn) [Example 56, 2-[2-(4-morpholinyl)phenyl]-4-(trifluoromethyl)-N-[1-[3-(trifluoromethyl)phenyl]ethyl]-5-thiazolecarboxamide]	0.3 µM
0.05 to 1 µM	CCN(Cc1ccncc1)Cc1ccccc1-c1nc(C(F)(F)F)c(C(=O)NCc2cccc(OC(F)(F)F)c2)s1 [Example 59]	3 µM
0.05 to 1 µM	CCN(Cc1ccncc1)Cc1ccccc1-c1nc(C(F)(F)F)c(C(=O)N[C@@H](C)c2cccc(OC)c2)s1 [Example 60]	0.3 µM
0.05 to 1 µM	CCN(Cc1ccncc1)Cc1cccnc1-c1nc(C(F)(F)F)c(C(=O)N[C@@H](C)c2cccc(N3CCOCC3)c2)s1 [Example 62]	3 µM
0.05 to 1 µM	CCN(Cc1ccncc1)Cc1cccnc1-c1nc(C(F)(F)F)c(C(=O)NC(C)c2cccc(CN3CCOCC3)c2)s1 (stereo not drawn) [Example 63]	30 µM
